{"source": "patent US5858702A", "about": "“Isolation, cloning and expression of transmembrane water channel Aquaporin 5 (AQP5)” (The Johns Hopkins University, priority 1995, dated 1999)", "molecules": {"B1": {"name": "AQP5: 265-residue rat salivary water channel protein, 5th mammalian Aquaporin (protein, UniProt P47864 1-265, looked up)", "Aquaporin-5": "MKKEVCSLAFFKAVFAEFLATLIFVFFGLGSALKWPSALPTILQISIAFGLAIGTLAQALGPVSGGHINPAITLALLIGNQISLLRAVFYVAAQLVGAIAGAGILYWLAPLNARGNLAVNALNNNTTPGKAMVVELILTFQLALCIFSSTDSRRTSPVGSPALSIGLSVTLGHLVGIYFTGCSMNPARSFGPAVVMNRFSPSHWVFWVGPIVGAMLAAILYFYLLFPSSLSLHDRVAVVKGTYEPEEDWEDHREERKKTIELTAH"}}, "key": {"human RBC": {"system": "human RBC", "settings": "cited from earlier work"}, "CHIP28": {"target": "T1, CHIP28 (Homo sapiens, UniProt P29972)", "T1 construct": "was comprised of AQP1 (the 28-kDa protein itself and the 35-60-kDa glycosylated protein); from tissue; host or cells: human erythrocytes (blood-bank units; small-scale purifications from freshly drawn whole blood)", "T1 sequence (P29972 2-269 limits assumed)": "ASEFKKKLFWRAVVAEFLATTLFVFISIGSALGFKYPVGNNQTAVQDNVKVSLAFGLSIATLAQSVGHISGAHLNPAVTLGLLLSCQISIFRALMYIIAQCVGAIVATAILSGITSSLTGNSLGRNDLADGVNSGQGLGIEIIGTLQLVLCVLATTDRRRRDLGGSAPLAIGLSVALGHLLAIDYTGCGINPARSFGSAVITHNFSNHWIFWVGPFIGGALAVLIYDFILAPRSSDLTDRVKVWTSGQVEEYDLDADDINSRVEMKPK", "test": "Stopped-flow water flux (Pf) in CHIP28 proteoliposomes, effect of mercurial reagents", "format": "biochemical", "settings": "1 mM", "procedure": "Purified AQP1 was stored overnight at 0° C. or frozen for several days at -80° C. prior to reconstitution. Reconstitution into proteoliposomes was carried out in a final volume of 1 ml containing 60-90 μg of purified AQP 1 protein in chromatography buffer, 9 mg of bath-sonicated E. coli phospholipid, 1.25% (w/v) octyl glucoside, and 50 mM Tris-HCl (pH 7.5). The mixture was briefly blended on a vortex mixer and incubated for 20 minutes on ice. Proteoliposomes (or liposomes prepared without protein) were formed at room temperature by rapidly injecting the mixture into 25 ml of buffer A [50 mM MOPS, pH 7.5, 150 mM N-methyl-D-glucamine (NMDG) chloride also containing 10-15 mM carboxyfluorescein, 1 mM dithiothreitol, and 0.5 mM PMSF]. For the measurement of proton permeability, proteoliposomes and liposomes were loaded with buffer B (5 mM MOPS, pH 7.5, 150 mM KCl, 0.5 mM carboxyfluorescein, 1 mM dithiothreitol, and 0.5 mM PMSF). The suspension was incubated for 20 minutes at room temperature. Proteoliposomes or liposomes were collected by centrifugation for 1 hour at 123000×g in a Beckman Type 42.1 rotor at 4° C. The pellet was resuspended in 8 ml of buffer A or B and then centrifuged for 1 hour at 152000×g in a Beckman Type 50 Ti rotor. Proteoliposomes or liposomes were resuspended in 300 μl of buffer A or B and stored at 4° C. for 16-24 hours. Typically 50% (54±6%, n=5) of the AQP1 protein and 70% of the phospholipid were recovered in proteoliposomes. The lipid to protein ratio was in the range of 120:1 to 219:1. These proteoliposomes have internal volumes of 1 μl/mg of phospholipid (Ambudkar and Maloney, 1986, J. Biol. Chem. 261:10079-10086). Protein and phospholipid were measured as described by Ambudkar & Maloney (J. Biol. Chem., 1986, 261:10079-10086).\n(§1) Permeability measurements. Membrane permeability measurements (Pf) were measured by exposing AQP1 proteoliposomes or control liposomes to an osmotic gradient by rapid mixing with an equal volume of another solution containing buffer A plus sufficient sucrose to increase osmolality in the mixed solutions to a value 120% of that in the original solution. This was performed with a stopped-flow fluorometer (SF.17MV, Applied Photophysics, Leatherhead, U.K.) with a measured dead time of 0.7 ms. The excitation wavelength was set at 490±1.5 nm using a 150-W mercury-xenon arc lamp and monochromator (.function.3.4 grating monochromator, both from Applied Photophysics); the emission wavelength was >515 nm using a cut-on filter (Oriel Corp., Stratford, Conn.). Extravesicular carboxyfluorescein fluorescence was completely quenched using anti-fluorescein antibody (Harris et al., 1990, Am. J. Physiol. 259:F366-F371).\nWithin the range of osmolalities used in these experiments, the vesicles acted as perfect osmometers, and relative volume (absolute volume divided by initial volume) was linearly related to relative fluorescence (absolute fluorescence divided by initial fluorescence). The data obtained from 8 to 16 determinations was averaged and fit to single-exponential curves using 5 software provided by Applied Photophysics (Zeidel et al., 1992, Biochemistry 31:589-596). The fitting parameters were then used to determine Pf by first applying the linear conversion from relative fluorescence to relative volume and then iteratively solving the water permeability equation using MathCAD software (MathSoft, Cambridge, Mass.):\ndV(t)/dt=(Pf)(SAV)(MVW)[(Cin /V(t))-Cout ] (1)\nwhere V(t) is relative intravesicular volume as a function of time, Pf is osmotic water permeability in centimeters per second, SAV is the vesicle surface area to volume ratio, MVW is the molar volume of water (18 cm^3 /mol), and Cin and Cout are the initial concentrations of total solute inside and outside the vesicle, respectively (Zeidel et al., 1992, Biochemistry 31:589-596).\nEffect of mercural reagents."}, "[1]": {"test": "Stopped-flow water flux (Pf) in control liposomes, effect of mercurial reagents", "format": "biochemical", "settings": "1 mM mercurial", "procedure": "(§2) Purified AQP1 was stored overnight at 0° C. or frozen for several days at -80° C. prior to reconstitution. Reconstitution into proteoliposomes was carried out in a final volume of 1 ml containing 60-90 μg of purified AQP 1 protein in chromatography buffer, 9 mg of bath-sonicated E. coli phospholipid, 1.25% (w/v) octyl glucoside, and 50 mM Tris-HCl (pH 7.5). The mixture was briefly blended on a vortex mixer and incubated for 20 minutes on ice. […] Protein and phospholipid were measured as described by Ambudkar & Maloney (J. Biol. Chem., 1986, 261:10079-10086).\nas §1, with “The excitation wavelength was set at 490±1.5 nm using a 150-W mercury-xenon arc lamp and monochromator (.function.3.4 grating monochromator, both from Applied Photophysics); the emission wavelength was >515 nm using a cut-on filter (Oriel Corp., Stratford, Conn.).” left out, “259:F366-F371). […]” for “259:F366-F371).”"}, "[2]": {"test": "Proton permeability (PH+) of CHIP28 proteoliposomes", "format": "biochemical", "settings": "1 μM gramicidin A added to vesicles", "procedure": "as §2, with “ice. Proteoliposomes (or liposomes prepared without protein) were formed at room temperature by rapidly injecting the mixture into 25 ml of buffer A [50 mM MOPS, pH 7.5, 150 mM N-methyl-D-glucamine (NMDG) chloride also containing 10-15 mM carboxyfluorescein, 1 mM dithiothreitol, and 0.5 mM PMSF].” for “ice.”\nExclusion of protons. […] Proton permeability was measured in CHIP28-containing liposomes containing 150 mM KCl and 5 mM MOPS, incorporating 1 μM valinomycin to prevent accumulation of protons from generating a positive intravesicular voltage. […] Over the pH range employed, fluorescence was linearly related to pH; extravesicular fluorescence was quenched with anti-fluorescein antibody. To ensure that increases in PH+ caused by CHIP28 could have been detected, 1 μM gramicidin A was added and increased PH+ by over 50-fold in each experiment."}, "Xenopus oocytes": {"system": "Xenopus oocytes", "test": "Two electrode voltage clamp of AQP5-expressing oocytes", "format": "cell-based", "settings": "electrophysiological studies, not shown", "procedure": "Functional expression in Oocytes--A 1-kb BamHI fragment containing the 5' untranslated sequence and the entire open reading frame of the salivary cDNA was blunt-end-ligated into the BglII site of the Xenopus expression construct pXβG, which contains the HindIII-Pst insert of pSP64T in pBS II KS (Preston et al., 1992, Science, 256:385-387). Capped cRNA was synthesized in vitro after digestion with Xbal (Preston et al., 1993). Defolliculated stage V-VI Xenopus oocytes were injected with 50 nl of water or up to 5 ng of sample cRNAs and incubated for 3 days at 18° C. in 200 mosM modified Barth's buffer. The oocytes were transferred to 70 mosM modified Barth's buffer at 21° C.; oocyte swelling was monitored by videomicroscopy, and the coefficient of osmotic water permeability (Pf) was determined (Preston et al., 1992, 1993). Uptake of [^14 C]urea or [^14 C]glycerol was measured by incubating oocytes in 200 mosM Barth's buffer for 10-20 min at 21° C. followed by washing and SDS solubilization. No increase in ion conductance was found when control oocytes were compared to RNA-injected oocytes by two electrode voltage clamps (Preston et al, 1992)."}}, "data": [{"molecule": "O=C(CCc1ccc(O)cc1)c1c(O)cc(O)cc1O", "note": "[Phloretin]", "values": [{"measurement": "urea flux in human RBC", "setting": "human RBC", "value": "inhibits urea flux"}, {"measurement": "water flux in human RBC", "setting": "human RBC", "value": "without altering water flux"}]}, {"molecule": "O=S(=O)([O-])c1cc[c]([Hg][Cl])cc1", "note": "[pCMBS, p-chloromercuribenzene sulfonate]", "values": [{"measurement": "inhibition of Pf at 5 and 10 minutes", "setting": "CHIP28; 37° C.", "value": "partial"}, {"measurement": "time to complete inhibition of Pf", "setting": "CHIP28; 37° C.", "value": "20 to 30", "unit": "min"}, {"measurement": "Pf in CHIP28 proteoliposomes after mercurial", "setting": "CHIP28; 37° C. (FIG. 12: pCMBS 25 minutes, HgCl2 3 minutes)", "value": "0.009±0.005", "unit": "cm/s"}, {"measurement": "effect on the Pf of control liposomes", "setting": "[1]", "value": "Neither pCMBS nor HgCl2 had any effect"}]}, {"molecule": "gramicidin A", "values": [{"measurement": "increase of PH+", "setting": "[2]", "value": "over 50 fold"}]}, {"molecule": "B1", "values": [{"measurement": "membrane conductance", "setting": "Xenopus oocytes", "value": "failed to reveal increased membrane conductance"}]}]}
